Experimental findings from patent US20230399317A1, “COMPOUNDS AND METHODS FOR THE TREATMENT OF OCULAR DISORDERS” (Azura Ophthalmics Ltd., priority 2020, published 2023) are described below.

The series can be described thus: Rabbit Cornea Homogenate stability (esterase) assay, Method 2. Format: in vitro ADME. Particulars: for Esterase % Lifitegrast formation at 45 min: 37° C., Method 2 (DPBS pH 7.4); for API Formation rate (%/min): Method 2. As for the experimental part: Determining Rabbit Cornea Homogenate stability of the test compounds was performed using HPLC-MS or UPLC-MS. The assay was performed at two concentrations of Rabbit Cornea Homogenate (0.15 mg/mL and 0.45 mg/mL total protein) so that any hydrolysis observed can be assigned as esterase dependent or not.
Three to five rabbit corneas (e.g. New Zealand Whites (NZW) or Dutch Belted (DB)) of approx. 50 mg each were sliced and scraped with a scalpel and tweezers until reduced to small (1-3 mm), thin pieces. These were transferred into a glass vial containing approximately 2 mL of cold DPBS pH 7.4 buffer.
Sample was cooled intermittently on ice and shear homogenized for 3 minutes, then centrifuged for 3 min at 13,000 g. The supernatant was pipetted off into a vial, and total protein concentration determined at 280 nm. Sample was stored at −78° C.
10 mM Compound DMSO stocks were diluted to 10 μM in a glass vial: 10 μL of 10 mM Compound stock was added to 9,990 μL DPBS, pH 7.4 buffer. Esterase homogenate was diluted to 300 ng/μL and 900 ng/μL in DPBS. […]
A heater shaker was set to 37° C. Into a suitable 96 well plate (Run Plate), 80 μL of 300 or 900 ng/μL esterase homogenate was pipetted into two rows as compounds were analyzed in duplicate (0 min, 2 min, 5 min, 10 min, 20 min and 45 min). The plate was sealed and then warmed at 37° C. for 5 min.
Two 96 shallow-well plates were placed on ice (Kill Plates). To these, 180 μL of 60:40 MeCN-H2O+0.1% acetic acid were added to required rows. The plates were sealed to minimise evaporation.
To both rows of the Run Plate, 80 μL of 10 μM compound solution was added. At the appropriate time point, 20 μL of the assay mixture was added to the matching kill plate well containing 180 μL of 60:40 cold MeCN-H2O+0.1% acetic acid. For lipoic acid analysis, samples were analysed as soon as practicable by LCMS (Waters Xevo TQ-S). For parent conjugate and parent analysis the samples were diluted further 1 in 10: 20 μL supernatant was added to 180 μL of 50:50 MeCN—H2O.
Parent conjugate, parent and keratolytic concentrations were determined against appropriate standard response curves and the half-life (T½) of the parent conjugate was calculated using the peak area or the measured concentration of the parent conjugate at each time point in the linear region of the log-linear plot.

[1] abbreviates: Cornea Homogenate Conc 0.15 mg/mL.
[2] abbreviates: Cornea Homogenate Conc 0.45 mg/mL.

Structures are written as SMILES.

For the compound `CC(=O)NC(CSSCC(NC(C)=O)C(=O)OC(C)OC(=O)[C@H](Cc1cccc(S(C)(=O)=O)c1)NC(=O)c1c(Cl)cc2c(c1Cl)CCN(C(=O)c1ccc3ccoc3c1)C2)C(=O)O` (stereo partly shown) [Compound 25], the “Esterase % Lifitegrast formation at 45 min” value runs as follows: under setting [1], “A (percent active pharmaceutical ingredient (API) formation <25%)”; under setting [2], “A (percent active pharmaceutical ingredient (API) formation <25%)”. The “API Formation rate (%/min)” value reads like this: under setting [1], “a (API formation rate <0.5%/min)”; under setting [2], “a (API formation rate <0.5%/min)”.

Regarding `CC(=O)N1C(C(=O)OC(C)OC(=O)[C@H](Cc2cccc(S(C)(=O)=O)c2)NC(=O)c2c(Cl)cc3c(c2Cl)CCN(C(=O)c2ccc4ccoc4c2)C3)CSC1(C)C` (stereo partly shown) [Compound 26], the “Esterase % Lifitegrast formation at 45 min” value is, setting by setting: under setting [1], “A (percent active pharmaceutical ingredient (API) formation <25%)”; under setting [2], “A (percent active pharmaceutical ingredient (API) formation <25%)”. In addition, the “API Formation rate (%/min)” value is, setting by setting: under setting [1], “a (API formation rate <0.5%/min)”; under setting [2], “a (API formation rate <0.5%/min)”.

Regarding `CC(=O)N[C@@H](CS)C(=O)OCCOCCOCCOCCOC(=O)OC(C)OC(=O)[C@H](Cc1cccc(S(C)(=O)=O)c1)NC(=O)c1c(Cl)cc2c(c1Cl)CCN(C(=O)c1ccc3ccoc3c1)C2` (stereo partly shown) [Compound 29], the “Esterase % Lifitegrast formation at 45 min” value reads like this: under setting [1], “A (percent active pharmaceutical ingredient (API) formation <25%)”; under setting [2], “A (percent active pharmaceutical ingredient (API) formation <25%)”. The “API Formation rate (%/min)” value was “a (API formation rate <0.5%/min)” under setting [1] and “a (API formation rate <0.5%/min)” under setting [2].

Turning to `CC(=O)N[C@@H](CS)C(=O)OCCOCCOCCOCCOCCOCCOCCOCCOC(=O)OC(C)OC(=O)[C@H](Cc1cccc(S(C)(=O)=O)c1)NC(=O)c1c(Cl)cc2c(c1Cl)CCN(C(=O)c1ccc3ccoc3c1)C2` (stereo partly shown) [Compound 30], the “Esterase % Lifitegrast formation at 45 min” value by setting is: under setting [1], “A (percent active pharmaceutical ingredient (API) formation <25%)”; under setting [2], “A (percent active pharmaceutical ingredient (API) formation <25%)”. For the same compound, the “API Formation rate (%/min)” value by setting is: under setting [1], “a (API formation rate <0.5%/min)”; under setting [2], “a (API formation rate <0.5%/min)”.

For `CS(=O)(=O)c1cccc(C[C@H](NC(=O)c2c(Cl)cc3c(c2Cl)CCN(C(=O)c2ccc4ccoc4c2)C3)C(=O)OCCO)c1` [Compound 32], under setting [1], the “Esterase % Lifitegrast formation at 45 min” value is “A (percent active pharmaceutical ingredient (API) formation <25%)” and the “API Formation rate (%/min)” value was “a (API formation rate <0.5%/min)”. For the same compound, under setting [2], the “Esterase % Lifitegrast formation at 45 min” value is on record as “B (percent API formation 25% to 50%)” and the “API Formation rate (%/min)” value is recorded as “b (API formation rate 0.5-1.0%/min)”.

As to `CS(=O)(=O)c1cccc(C[C@H](NC(=O)c2c(Cl)cc3c(c2Cl)CCN(C(=O)c2ccc4ccoc4c2)C3)C(=O)OCCCO)c1` [Compound 33], the “Esterase % Lifitegrast formation at 45 min” value reads like this: under setting [1], “B (percent API formation 25% to 50%)”; under setting [2], “B (percent API formation 25% to 50%)”. The “API Formation rate (%/min)” value is, setting by setting: under setting [1], “b (API formation rate 0.5-1.0%/min)”; under setting [2], “c (API formation rate 1.0-1.5%/min)”.

For `CS(=O)(=O)c1cccc(C[C@H](NC(=O)c2c(Cl)cc3c(c2Cl)CCN(C(=O)c2ccc4ccoc4c2)C3)C(=O)OCCOC(=O)CCCC[C@@H]2CCSS2)c1` [Compound 34], the “Esterase % Lifitegrast formation at 45 min” value by setting is: under setting [1], “A (percent active pharmaceutical ingredient (API) formation <25%)”; under setting [2], “A (percent active pharmaceutical ingredient (API) formation <25%)”. Moreover, the “API Formation rate (%/min)” value by setting is: under setting [1], “a (API formation rate <0.5%/min)”; under setting [2], “a (API formation rate <0.5%/min)”.

For the compound `CS(=O)(=O)c1cccc(C[C@H](NC(=O)c2c(Cl)cc3c(c2Cl)CCN(C(=O)c2ccc4ccoc4c2)C3)C(=O)OCCCOC(=O)CCCC[C@@H]2CCSS2)c1` [Compound 35], under setting [1], the “Esterase % Lifitegrast formation at 45 min” value is “A (percent active pharmaceutical ingredient (API) formation <25%)” and the “API Formation rate (%/min)” value is “a (API formation rate <0.5%/min)”. Besides, under setting [2], the “Esterase % Lifitegrast formation at 45 min” value is reported as “A (percent active pharmaceutical ingredient (API) formation <25%)” and the “API Formation rate (%/min)” value was “a (API formation rate <0.5%/min)”.

Turning to `CS(=O)(=O)c1cccc(C[C@H](NC(=O)c2c(Cl)cc3c(c2Cl)CCN(C(=O)c2ccc4ccoc4c2)C3)C(=O)OCOC(=O)CCCC[C@@H]2CCSS2)c1` [Compound 36], the “Esterase % Lifitegrast formation at 45 min” value runs as follows: under setting [1], “A (percent active pharmaceutical ingredient (API) formation <25%)”; under setting [2], “B (percent API formation 25% to 50%)”. In addition, the “API Formation rate (%/min)” value runs as follows: under setting [1], “a (API formation rate <0.5%/min)”; under setting [2], “b (API formation rate 0.5-1.0%/min)”.

On to `CCOC(=O)CCC(=O)OC(C)OC(=O)[C@H](Cc1cccc(S(C)(=O)=O)c1)NC(=O)c1c(Cl)cc2c(c1Cl)CCN(C(=O)c1ccc3ccoc3c1)C2` (stereo partly shown) [Compound 37], for which, under setting [1], the “Esterase % Lifitegrast formation at 45 min” value is “C (percent API formation 51% to 75%)” and the “API Formation rate (%/min)” value is recorded as “c (API formation rate 1.0-1.5%/min)”. Under setting [2], the “Esterase % Lifitegrast formation at 45 min” value is “D (percent API formation >75%)” and the “API Formation rate (%/min)” value is reported as “c (API formation rate 1.0-1.5%/min)”.

For `CC(OC(=O)OCCO)OC(=O)[C@H](Cc1cccc(S(C)(=O)=O)c1)NC(=O)c1c(Cl)cc2c(c1Cl)CCN(C(=O)c1ccc3ccoc3c1)C2` (stereo partly shown) [Compound 42], under setting [1], the “Esterase % Lifitegrast formation at 45 min” value is listed as “C (percent API formation 51% to 75%)” and the “API Formation rate (%/min)” value was “d (API formation rate >1.5%/min)”. Also, under setting [2], the “Esterase % Lifitegrast formation at 45 min” value is reported as “C (percent API formation 51% to 75%)” and the “API Formation rate (%/min)” value is “d (API formation rate >1.5%/min)”.

Consider `CC(OC(=O)OCCCO)OC(=O)[C@H](Cc1cccc(S(C)(=O)=O)c1)NC(=O)c1c(Cl)cc2c(c1Cl)CCN(C(=O)c1ccc3ccoc3c1)C2` (stereo partly shown) [Compound 43], for which, under setting [1], the “Esterase % Lifitegrast formation at 45 min” value is recorded as “B (percent API formation 25% to 50%)” and the “API Formation rate (%/min)” value is reported as “b (API formation rate 0.5-1.0%/min)”. Besides, under setting [2], the “Esterase % Lifitegrast formation at 45 min” value is on record as “C (percent API formation 51% to 75%)” and the “API Formation rate (%/min)” value is “c (API formation rate 1.0-1.5%/min)”.

`CC(=O)N[C@@H](CSSCC[C@@H](CCCCC(=O)OC(C)OC(=O)[C@H](Cc1cccc(S(C)(=O)=O)c1)NC(=O)c1c(Cl)cc2c(c1Cl)CCN(C(=O)c1ccc3ccoc3c1)C2)SSC[C@H](NC(C)=O)C(=O)O)C(=O)O` (stereo partly shown) [Compound 44]: the “Esterase % Lifitegrast formation at 45 min” value under setting [1] is recorded as “A (percent active pharmaceutical ingredient (API) formation <25%)” and the “Esterase % Lifitegrast formation at 45 min” value under setting [2] was “A (percent active pharmaceutical ingredient (API) formation <25%)”. The “API Formation rate (%/min)” value is, setting by setting: under setting [1], “a (API formation rate <0.5%/min)”; under setting [2], “a (API formation rate <0.5%/min)”.
